Laboratory results: patent publication US20230073777A1, “CYCLIC-AMP RESPONSE ELEMENT BINDING PROTEIN (CBP) AND/OR ADENOVIRAL E1A BINDING PROTEIN OF 300 KDA (P300) DEGRADATION COMPOUNDS AND METHODS OF USE” (CULLGEN (SHANGHAI), INC., priority 2019, published 2023)
Entries after “also recorded” stand apart in the source; their conditions may differ.

Legend:
HEL = test: Cell viability assay, HEL; type: cell-based; settings: Homo sapiens, Erythroleukemia
Experimental: (§1) Cells were seeded at a density of 5000 cells per well in 96-well assay plates and treated with test compounds following a 12-point 3-fold serial dilution. Three days later, cell viability was determined using the CellTiter-Glo assay kit according to the manufacturer's instructions. The dose-response curves were determined and IC50 values were calculated using the GraphPad Prism software following a nonlinear regression (least squares fit) method.
(§2) The IC50 value of each compound was determined as described in FIG. 4 and calculated using the GraphPad Prism 5.0 software.

MV4; 11 = test: Cell viability assay, MV4; 11; type: cell-based; settings: Homo sapiens, 11, Acute monocytic leukemia
Experimental: as §1, §2

MOLM-13 = test: Cell viability assay, MOLM-13; type: cell-based; settings: Homo sapiens, MOLM-13, Acute monocytic leukemia
Experimental: as §1, §2

MM.1S = test: Cell viability assay, MM.1S; type: cell-based; settings: Homo sapiens, MM1.S, Multiple Myeloma
Experimental: as §1, §2

AMO-1 = test: Cell viability assay, AMO-1; type: cell-based; settings: Homo sapiens, AMO1, AMO-1, Multiple Myeloma
Experimental: as §1, §2

WSU-DLCL2 = test: Cell viability assay, WSU-DLCL2; type: cell-based; settings: Homo sapiens, WSUDLCL2, WSU-DLCL2, Diffuse large B-cell lymphoma
Experimental: as §1, §2

Karpas-422 = test: Cell viability assay, Karpas-422; type: cell-based; settings: Homo sapiens, Karpas-422, Diffuse large B-cell lymphoma
Experimental: as §1, §2

Pfeiffer = test: Cell viability assay, Pfeiffer; type: cell-based; settings: Homo sapiens, Diffuse large B-cell lymphoma
Experimental: as §1, §2

SU-DHL-1 = test: Cell viability assay, SU-DHL-1; type: cell-based; settings: Homo sapiens, SU-DHL-1, Diffuse large B-cell lymphoma
Experimental: as §1, §2

VCaP = test: Cell viability assay, VCaP; type: cell-based; settings: Homo sapiens, Prostate carcinoma
Experimental: as §1, §2

NCI-H520 = test: Cell viability assay, NCI-H520; type: cell-based; settings: Homo sapiens, NCI-H520, Non-small cell lung cancer
Experimental: as §1, §2

LK-2 = test: Cell viability assay, LK-2; type: cell-based; settings: Homo sapiens, LK-2, Non-small cell lung cancer
Experimental: as §1, §2

MCF-7 = test: Cell viability assay, MCF-7; type: cell-based; settings: Homo sapiens, MCF7, MCF-7, breast carcinoma
Experimental: as §1, §2

SK-BR-3 = test: Cell viability assay, SK-BR-3; type: cell-based; settings: Homo sapiens, SK-BR-3, breast carcinoma
Experimental: as §1, §2

P300/CBP = test: Immunoblotting of P300/CBP protein levels in LNCaP or 22RV1 cells; type: cell-based; settings: LNCaP cells, 10 nM single dose (FIG. 8)
Experimental: Specific exemplary bivalent compounds were characterized in LNCaP or 22RV1 cells. LNCaP or 22RV1 cells that express CBP/P300 proteins were treated with GNE-781 or the bivalent compounds disclosed herein (P-001 to P-174) for indicated hours. Cells were collected, lysed and subject to immunoblotting using an antibody specific to P300 or CBP proteins. Tubulin or vinculin was included as the loading control. DMSO was used as the negative control.
Cultured cells or tissue chunks were washed with cold PBS once and lysed in cold RIPA buffer supplemented with protease inhibitors and phosphatase inhibitors (Beyotime Biotechnology). The solutions were then incubated at 4° C. for 30 minutes with gentle agitation to fully lyse cells. Cell lysates were centrifuged at 13,000 rpm for 10 minutes at 4° C. and pellets were discarded. Total protein concentrations in the lysates were determined by BCA assays (Beyotime Biotechnology). Cell lysates were mixed with Laemmli loading buffer to 1× and heated at 99° C. for 5 min. Proteins were resolved on SDS-PAGE and visualized by chemiluminescence. Images were taken by a ChemiDoc MP Imaging system (Bio-Rad). Protein bands were quantitated using the accompanied software provided by Bio-Rad.

P300 [1] = target: T1, P300 (Homo sapiens, UniProt Q09472); test: Pharmacodynamic study, P300 in 22RV1 subcutaneous xenograft tumors; type: in vivo, Athymic nude mice; design: from tissue; host or cells: 22RV1 subcutaneous xenograft tumours in athymic nude mice; settings: single dose 40 mg/kg, i.p. or p.o., six hours after administration (FIG. 9)
T1 sequence (Q09472 whole entry): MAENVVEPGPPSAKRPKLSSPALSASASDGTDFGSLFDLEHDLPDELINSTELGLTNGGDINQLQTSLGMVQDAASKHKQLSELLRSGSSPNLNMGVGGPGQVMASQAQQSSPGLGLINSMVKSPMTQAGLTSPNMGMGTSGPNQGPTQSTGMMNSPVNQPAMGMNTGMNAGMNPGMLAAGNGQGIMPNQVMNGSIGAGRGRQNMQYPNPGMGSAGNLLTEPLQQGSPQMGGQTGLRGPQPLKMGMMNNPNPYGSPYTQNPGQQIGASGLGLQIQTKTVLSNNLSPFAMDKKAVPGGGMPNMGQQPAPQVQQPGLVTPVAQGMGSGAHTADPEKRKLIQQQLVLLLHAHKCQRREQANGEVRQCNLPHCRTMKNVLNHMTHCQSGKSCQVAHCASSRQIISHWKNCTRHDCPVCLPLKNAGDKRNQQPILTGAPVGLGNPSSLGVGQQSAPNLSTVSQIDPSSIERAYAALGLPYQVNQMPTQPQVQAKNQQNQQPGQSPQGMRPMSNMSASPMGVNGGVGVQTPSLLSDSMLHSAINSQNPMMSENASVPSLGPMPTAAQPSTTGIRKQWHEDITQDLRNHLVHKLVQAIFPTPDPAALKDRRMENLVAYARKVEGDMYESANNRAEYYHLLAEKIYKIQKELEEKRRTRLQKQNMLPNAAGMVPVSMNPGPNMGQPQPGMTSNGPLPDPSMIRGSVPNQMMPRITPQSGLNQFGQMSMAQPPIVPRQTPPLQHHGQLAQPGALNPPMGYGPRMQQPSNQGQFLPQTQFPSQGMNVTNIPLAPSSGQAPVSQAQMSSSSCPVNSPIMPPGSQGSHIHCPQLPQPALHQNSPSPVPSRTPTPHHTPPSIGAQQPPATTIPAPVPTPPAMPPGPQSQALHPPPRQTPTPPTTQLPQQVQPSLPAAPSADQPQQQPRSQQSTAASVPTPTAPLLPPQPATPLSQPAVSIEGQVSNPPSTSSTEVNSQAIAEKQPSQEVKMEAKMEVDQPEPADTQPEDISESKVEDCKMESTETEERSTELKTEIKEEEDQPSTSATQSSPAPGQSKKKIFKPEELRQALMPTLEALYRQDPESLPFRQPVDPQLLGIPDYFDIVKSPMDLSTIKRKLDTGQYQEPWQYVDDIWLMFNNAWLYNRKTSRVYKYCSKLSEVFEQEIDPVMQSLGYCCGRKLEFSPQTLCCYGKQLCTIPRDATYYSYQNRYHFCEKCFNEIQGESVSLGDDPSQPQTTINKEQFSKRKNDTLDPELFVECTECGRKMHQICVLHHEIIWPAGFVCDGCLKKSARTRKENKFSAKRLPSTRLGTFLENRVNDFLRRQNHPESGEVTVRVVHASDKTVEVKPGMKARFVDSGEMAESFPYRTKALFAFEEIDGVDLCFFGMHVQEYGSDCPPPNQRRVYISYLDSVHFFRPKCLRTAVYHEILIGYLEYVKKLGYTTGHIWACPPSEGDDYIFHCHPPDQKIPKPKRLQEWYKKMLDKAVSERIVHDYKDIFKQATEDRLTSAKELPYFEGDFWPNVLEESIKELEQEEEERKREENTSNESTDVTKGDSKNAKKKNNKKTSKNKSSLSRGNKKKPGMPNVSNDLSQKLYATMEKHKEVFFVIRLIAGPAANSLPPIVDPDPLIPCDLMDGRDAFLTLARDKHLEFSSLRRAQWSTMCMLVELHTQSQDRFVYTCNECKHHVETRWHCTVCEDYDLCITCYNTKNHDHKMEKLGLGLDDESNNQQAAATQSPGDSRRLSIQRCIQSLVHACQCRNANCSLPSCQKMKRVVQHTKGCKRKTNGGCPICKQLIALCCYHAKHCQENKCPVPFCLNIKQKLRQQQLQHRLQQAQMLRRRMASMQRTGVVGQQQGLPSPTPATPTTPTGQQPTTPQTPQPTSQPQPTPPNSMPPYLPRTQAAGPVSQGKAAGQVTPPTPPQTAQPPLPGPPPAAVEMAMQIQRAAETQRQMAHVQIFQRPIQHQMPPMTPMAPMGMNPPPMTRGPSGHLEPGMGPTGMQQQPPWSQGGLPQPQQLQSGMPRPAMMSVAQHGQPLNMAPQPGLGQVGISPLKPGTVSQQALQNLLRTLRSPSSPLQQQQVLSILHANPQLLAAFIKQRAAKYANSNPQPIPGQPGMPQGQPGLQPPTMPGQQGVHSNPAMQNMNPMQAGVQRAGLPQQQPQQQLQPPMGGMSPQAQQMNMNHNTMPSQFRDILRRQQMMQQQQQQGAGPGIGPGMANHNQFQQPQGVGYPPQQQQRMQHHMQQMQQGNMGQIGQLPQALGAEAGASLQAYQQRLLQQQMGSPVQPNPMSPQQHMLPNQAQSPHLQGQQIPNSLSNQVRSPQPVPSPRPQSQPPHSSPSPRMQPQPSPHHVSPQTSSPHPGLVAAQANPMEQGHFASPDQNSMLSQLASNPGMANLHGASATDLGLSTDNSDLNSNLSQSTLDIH
Experimental: In addition to cultured cells, athymic nude mice bearing 22RV1 subcutaneous xenograft tumors at the right flank were intraperitoneally or orally treated with 40 mg/kg bivalent compounds. Six hours after drug administration, animals were sacrificed for immunoblotting of P300 and CBP in homogenized xenograft tumor masses. […] Moreover, ICR mice were orally treated with 40 mg/kg bivalent compounds. Six hours after drug administration, animals were sacrificed for immunoblotting of CBP in homogenized lung tissues.
Athymic nude mice bearing 22RV1 subcutaneous xenograft tumors at the right flank were intraperitoneally or orally treated with selected bivalent compounds at 40 mg/kg. Six hours after drug administration, animals were sacrificed, and xenograft tumors were collected for immunoblotting of P300 and CBP.
All animal experiments were performed under protocols approved by the Institutional Animal Care and Use Committee (IACUC) of Cullgen. Athymic nude mice (male, 5-weeks old) received 5 million 22RV1 cells subcutaneously inoculated at the right flank site. Twenty days following inoculation, tumors were approximately 500 mm^3 in size. Tumor-bearing mice were treated intraperitoneally or via oral gavage with vehicle or bivalent compounds at indicated doses. 6 hours after drug administration, animals were sacrificed, tumors were resected. Small chunks of tumors were homogenized for immunoblotting of P300/CBP and other proteins as indicated. Alternatively, ICR mice (male, 5-weeks old) were treated via oral gavage with vehicle or bivalent compounds at indicated doses. 6 hours after drug administration, animals were sacrificed, lung tissues were resected. Small chunks of lung tissues were homogenized for immunoblotting of CBP and other proteins as indicated.

P300 [2] = target: T1, P300; test: Immunoblotting of P300 protein levels in LNCaP or 22RV1 cells; type: cell-based; design: LNCaP or 22RV1 cells that express CBP/P300 proteins were treated with GNE-781 or the bivalent compounds; endogenous in cells; host or cells: LNCaP (clone FGC) or 22RV1 cells; settings: for inhibition at 0.01 µM: percentage of inhibition of p300 at 10 nM (Table 2), read-out: Degradation (10 nM)
Summary of the method: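 P300/CBP levels quantified by chemiluminescent immunoblot band densitometry, normalized against tubulin or vinculin loading controls. Lysates came from LNCaP or 22RV1 cells exposed to compounds or DMSO vehicle for indicated times.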

IC50 (MV4; 11) [nM] | IC50 (MOLM-13) [nM] | IC50 (MM.1S) [nM] | IC50 (Karpas-422) [nM] | IC50 (SU-DHL-1) [nM] | IC50 (VCaP) [nM] | IC50 (NCI-H520) [nM] | IC50 (MCF-7) [nM] | IC50 (SK-BR-3) [nM] | P300 protein levels in 22RV1 xenograft tumors (P300 [1]) | P300 protein levels, dependence on interaction with cereblon (P300 [2]; LNCaP or 22RV1 cells, various concentrations (FIG. 7)) | inhibition at 0.01 µM (P300 [2]) [%] | Structure (SMILES) | IC50 (HEL) [nM] | IC50 (AMO-1) [nM] | IC50 (WSU-DLCL2) [nM] | IC50 (Pfeiffer) [nM] | IC50 (LK-2) [nM] | degradation of P300/CBP in combination with pomalidomide, MG-132, Bortezomib or MLN4924 (P300/CBP)
> 10000 | 6.9 | 0.2 | 0.9 | 0.8 | 3.6 | 2 | 65.4 | 10.1 | significantly reducing | P300 degradation induced by P-034 | > 80 | CNC(=O)N1CCc2c(c(N3CCCc4cc(-c5cnn(C)c5)c(C(F)F)cc43)nn2C2CCN(C(=O)CCCCCNc3cccc4c3C(=O)N(C3CCC(=O)NC3=O)C4=O)CC2)C1 (centres unmarked) [P-034, 3-(7-(difluoromethyl)-6-(1-methyl-1H-pyrazol-4-yl)-3,4-dihydroquinolin-1(2H)-yl)-1-(1-(6-((2-(2,6-dioxopiperidin-3-yl)-1,3-dioxoisoindolin-4-yl)amino)hexanoyl)piperidin-4-yl)-N-methyl-1,4,6,7-tetrahydro-5H-pyrazolo[4,3-c]pyridine-5-carboxamide] | 37.8 | 141 | 0.4 | 0.7 | 7 | compromised; also recorded: neutralized
8.9 | 7.7 | 0.7 | 6.2 | 3.4 | 2.1 | 2.8 | 2.2 | 5.5 | significantly reducing | – | > 80 | CNC(=O)N1CCc2c(c(N3CCCc4cc(-c5cnn(C)c5)c(C(F)F)cc43)nn2C2CCN(C(=O)CCCCCCCNc3ccc4c(c3)C(=O)N(C3CCC(=O)NC3=O)C4=O)CC2)C1 (centres unmarked) [P-007, 3-(7-(difluoromethyl)-6-(1-methyl-1H-pyrazol-4-yl)-3,4-dihydroquinolin-1(2H)-yl)-1-(1-(8-((2-(2,6-dioxopiperidin-3-yl)-1,3-dioxoisoindolin-5-yl)amino)octanoyl)piperidin-4-yl)-N-methyl-1,4,6,7-tetrahydro-5H-pyrazolo[4,3-c]pyridine-5-carboxamide] | 16.1 | 38.7 | 0.4 | 2.1 | 2.6 | compromised; also recorded: neutralized
